These results are taken from ChEMBL document CHEMBL1201862, “PubChem BioAssay data set” (2004).

Assay [1] in a line: growth suppression of PTEN-null colon cells, dose response, cell-based, HCT116 PTEN knockout (AID 1047).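 Note: HCT116 colon tumor cells with PTEN knocked out; cells exposed to compound for 60 hours before readout; potency for loss of cell viability measured by luminescence.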 The class given is functional.
Assay [2] in a line: growth suppression of beta-catenin-knockout colon cells, dose response, cell-based, HCT116, human colon tumor (AID 1045).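 Note: HCT116 colon tumor cells with beta catenin knocked out; cells exposed to compound for 60 hours.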 The class given is functional.
The target of assay [3] is Heat shock protein HSP 90-alpha (Homo sapiens, UniProt P07900). It counts as functional, organism-based.
For a further assay, the target named is Fatty acid synthase (Homo sapiens, UniProt P49327). Kind of assay: FAS thioesterase domain inhibitors, dose response, biochemical, kinetic fluorescence intensity (AID 624326).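 Note: rate of fluorescence rise from hydrolysis of a fluorogenic O-methyl fluorescein ester substrate.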 The class given is functional.
Assay [4] has as its target Glyceraldehyde-3-phosphate dehydrogenase (Homo sapiens, UniProt P04406).
In assay [5] the target is T1, Alkaline phosphatase, tissue-nonspecific isozyme (Homo sapiens, UniProt P05186).
T1 sequence (P05186 whole entry): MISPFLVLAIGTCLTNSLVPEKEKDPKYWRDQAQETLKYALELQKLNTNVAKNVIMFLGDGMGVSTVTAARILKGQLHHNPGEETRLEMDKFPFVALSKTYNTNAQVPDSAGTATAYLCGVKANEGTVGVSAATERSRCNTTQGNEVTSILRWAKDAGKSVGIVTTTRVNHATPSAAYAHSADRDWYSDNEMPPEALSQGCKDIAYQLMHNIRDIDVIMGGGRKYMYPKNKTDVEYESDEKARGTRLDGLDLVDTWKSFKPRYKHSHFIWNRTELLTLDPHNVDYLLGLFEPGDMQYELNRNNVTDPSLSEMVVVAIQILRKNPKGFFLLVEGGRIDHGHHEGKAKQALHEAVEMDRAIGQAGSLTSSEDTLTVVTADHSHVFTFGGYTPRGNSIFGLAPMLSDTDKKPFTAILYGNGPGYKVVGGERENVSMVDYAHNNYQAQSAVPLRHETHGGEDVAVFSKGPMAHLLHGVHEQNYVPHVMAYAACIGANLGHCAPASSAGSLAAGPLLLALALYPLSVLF
Kind of assay: human TNAP enzyme inhibitors, SAR follow-up, biochemical, luminescent, dose response (AID 1056).

For assay [6], the target named is Peroxisome proliferator-activated receptor gamma/Nuclear receptor coactivator 2 (Homo sapiens, UniProt P37231). It counts as functional.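 Note: agonist potency for raising coactivator recruitment to the receptor.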
The target in assay [7] is Peroxisome proliferator-activated receptor gamma/Nuclear receptor coactivator 1 (Homo sapiens, UniProt P37231). It counts as functional.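 Note: agonist potency as compounds enhance coactivator SRC-1 recruitment to PPARgamma.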
Assay [8] addresses Peroxisome proliferator-activated receptor gamma/Nuclear receptor coactivator 3 (Homo sapiens, UniProt P37231). The class given is functional.
In assay [9] the target is T2, Heat shock factor protein 1 (Mus musculus, UniProt P38532).
T2 sequence (P38532 whole entry): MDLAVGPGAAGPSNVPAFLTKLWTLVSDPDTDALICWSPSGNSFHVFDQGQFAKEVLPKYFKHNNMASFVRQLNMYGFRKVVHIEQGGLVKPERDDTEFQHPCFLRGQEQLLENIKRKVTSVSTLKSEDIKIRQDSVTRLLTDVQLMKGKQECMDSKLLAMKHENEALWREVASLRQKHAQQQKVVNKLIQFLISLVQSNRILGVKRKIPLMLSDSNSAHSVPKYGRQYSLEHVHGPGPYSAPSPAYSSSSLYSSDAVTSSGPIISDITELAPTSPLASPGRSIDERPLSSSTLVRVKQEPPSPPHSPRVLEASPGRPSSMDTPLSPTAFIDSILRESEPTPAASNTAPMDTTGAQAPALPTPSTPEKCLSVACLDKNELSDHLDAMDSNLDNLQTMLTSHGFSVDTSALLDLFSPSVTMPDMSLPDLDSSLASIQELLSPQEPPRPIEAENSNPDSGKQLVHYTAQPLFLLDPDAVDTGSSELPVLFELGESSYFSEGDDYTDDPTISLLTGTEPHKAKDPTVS
Kind of assay: inhibition of MG132-induced HSE-luciferase signal, confirmation, cell-based, NIH3T3, luminescence, dose retest (AID 2382).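 Note: NIH3T3 fibroblasts with HSF1-driven luciferase reporter stressed by proteasome inhibitor MG132; luminescence from HSF1-driven luciferase expression after 8 hours of MG132 stress.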 The class given is functional.

A short description of assay [10]: microbe, parasite or virus in culture. The settings on record: Mycobacterium tuberculosis. It counts as functional.
The target of assay [11] is T3, Histone-lysine N-methyltransferase NSD2 (Homo sapiens, UniProt O96028).
T3 sequence (O96028 whole entry): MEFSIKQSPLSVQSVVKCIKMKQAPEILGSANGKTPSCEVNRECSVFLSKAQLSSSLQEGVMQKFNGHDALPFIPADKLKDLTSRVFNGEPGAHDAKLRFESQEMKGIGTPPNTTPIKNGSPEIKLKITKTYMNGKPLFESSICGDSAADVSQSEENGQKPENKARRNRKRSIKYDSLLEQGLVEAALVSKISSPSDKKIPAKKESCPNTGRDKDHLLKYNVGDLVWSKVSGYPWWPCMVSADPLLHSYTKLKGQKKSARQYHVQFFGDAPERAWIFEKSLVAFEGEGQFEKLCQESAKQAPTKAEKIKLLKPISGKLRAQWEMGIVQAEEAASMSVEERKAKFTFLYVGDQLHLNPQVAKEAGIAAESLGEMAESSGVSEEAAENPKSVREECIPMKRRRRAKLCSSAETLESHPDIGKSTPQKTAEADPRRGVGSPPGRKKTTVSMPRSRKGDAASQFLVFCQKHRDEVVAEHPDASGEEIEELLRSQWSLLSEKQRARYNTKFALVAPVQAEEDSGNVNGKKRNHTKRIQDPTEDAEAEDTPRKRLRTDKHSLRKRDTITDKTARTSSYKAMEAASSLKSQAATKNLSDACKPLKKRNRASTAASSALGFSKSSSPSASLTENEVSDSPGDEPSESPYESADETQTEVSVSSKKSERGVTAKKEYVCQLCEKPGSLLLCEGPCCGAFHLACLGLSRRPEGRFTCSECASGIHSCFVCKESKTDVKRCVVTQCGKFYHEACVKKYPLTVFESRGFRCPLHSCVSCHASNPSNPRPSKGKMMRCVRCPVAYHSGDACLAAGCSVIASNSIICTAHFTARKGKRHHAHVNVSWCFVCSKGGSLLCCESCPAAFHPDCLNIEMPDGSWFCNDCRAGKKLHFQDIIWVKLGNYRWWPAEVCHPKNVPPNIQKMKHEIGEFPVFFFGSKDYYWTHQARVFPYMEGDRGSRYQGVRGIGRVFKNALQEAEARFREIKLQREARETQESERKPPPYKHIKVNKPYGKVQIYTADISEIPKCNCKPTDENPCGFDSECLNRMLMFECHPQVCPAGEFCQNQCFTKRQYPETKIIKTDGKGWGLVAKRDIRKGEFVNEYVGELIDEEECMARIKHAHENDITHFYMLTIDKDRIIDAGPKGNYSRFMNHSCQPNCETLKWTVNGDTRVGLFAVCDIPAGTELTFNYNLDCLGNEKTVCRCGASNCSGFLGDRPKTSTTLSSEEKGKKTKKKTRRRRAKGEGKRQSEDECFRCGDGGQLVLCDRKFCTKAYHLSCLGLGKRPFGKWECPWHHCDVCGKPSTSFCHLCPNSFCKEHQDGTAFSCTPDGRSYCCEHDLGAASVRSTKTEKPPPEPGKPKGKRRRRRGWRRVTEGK
The class given is biochemical.

The target in assay [12] is T4, Replicative DNA helicase DnaB (Mycobacterium tuberculosis, UniProt P9WMR3).
T4 sequence (P9WMR3 whole entry): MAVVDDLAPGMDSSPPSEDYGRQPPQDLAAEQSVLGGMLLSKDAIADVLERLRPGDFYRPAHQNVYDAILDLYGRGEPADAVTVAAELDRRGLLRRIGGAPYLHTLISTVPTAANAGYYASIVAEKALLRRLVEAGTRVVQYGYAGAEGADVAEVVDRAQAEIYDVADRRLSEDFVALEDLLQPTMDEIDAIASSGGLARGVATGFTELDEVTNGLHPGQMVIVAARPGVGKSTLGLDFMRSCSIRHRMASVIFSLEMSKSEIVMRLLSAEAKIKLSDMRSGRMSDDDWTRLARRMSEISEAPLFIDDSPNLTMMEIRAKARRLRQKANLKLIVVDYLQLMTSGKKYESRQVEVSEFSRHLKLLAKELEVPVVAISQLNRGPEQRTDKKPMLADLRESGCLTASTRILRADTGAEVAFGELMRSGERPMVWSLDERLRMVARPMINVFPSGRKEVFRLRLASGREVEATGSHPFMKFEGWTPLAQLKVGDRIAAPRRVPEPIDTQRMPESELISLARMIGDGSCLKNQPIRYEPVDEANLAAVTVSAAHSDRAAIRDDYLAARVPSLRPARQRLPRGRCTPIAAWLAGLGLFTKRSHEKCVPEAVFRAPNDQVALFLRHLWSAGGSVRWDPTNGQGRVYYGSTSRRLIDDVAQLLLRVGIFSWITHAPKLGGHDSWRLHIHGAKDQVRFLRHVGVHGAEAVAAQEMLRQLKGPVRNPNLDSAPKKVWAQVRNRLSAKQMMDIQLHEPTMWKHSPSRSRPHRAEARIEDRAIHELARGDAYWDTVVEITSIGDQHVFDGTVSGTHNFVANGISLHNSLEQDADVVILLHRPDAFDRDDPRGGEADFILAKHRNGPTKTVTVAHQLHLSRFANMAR
Kind of assay: DnaB intein splicing inhibitors, dose response, biochemical, cell-free fluorescence (AID 449749). The class given is functional.

A further assay deals with T5, Protein RecA (Mycobacterium tuberculosis, UniProt P9WHJ3).
T5 sequence (P9WHJ3 whole entry): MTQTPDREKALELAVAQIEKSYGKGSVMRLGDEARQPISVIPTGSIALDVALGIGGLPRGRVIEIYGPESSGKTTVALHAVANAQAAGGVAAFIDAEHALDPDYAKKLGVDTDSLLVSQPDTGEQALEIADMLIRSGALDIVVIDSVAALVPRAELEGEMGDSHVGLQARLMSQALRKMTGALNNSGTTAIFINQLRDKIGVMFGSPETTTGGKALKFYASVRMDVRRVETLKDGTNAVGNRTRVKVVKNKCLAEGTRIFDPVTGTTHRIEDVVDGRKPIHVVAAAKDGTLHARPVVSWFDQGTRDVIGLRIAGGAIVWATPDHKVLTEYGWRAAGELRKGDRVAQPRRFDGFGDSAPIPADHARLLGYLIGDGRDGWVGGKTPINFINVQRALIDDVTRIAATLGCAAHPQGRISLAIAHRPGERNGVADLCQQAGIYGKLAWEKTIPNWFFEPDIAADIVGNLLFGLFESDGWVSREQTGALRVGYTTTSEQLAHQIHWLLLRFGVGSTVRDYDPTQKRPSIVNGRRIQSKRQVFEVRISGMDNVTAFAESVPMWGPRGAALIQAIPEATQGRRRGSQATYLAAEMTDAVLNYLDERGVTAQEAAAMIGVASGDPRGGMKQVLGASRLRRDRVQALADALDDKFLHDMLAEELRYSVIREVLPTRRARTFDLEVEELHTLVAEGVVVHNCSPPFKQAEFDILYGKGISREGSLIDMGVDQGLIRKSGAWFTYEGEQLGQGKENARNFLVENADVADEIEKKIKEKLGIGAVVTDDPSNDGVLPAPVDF
Kind of assay: Fluorescence Cell-Free Homogeneous Dose Retest to Identify Inhibitors of RecA-Intein Splicing Activity. [Related pubchem assays (depositor defined):AID2097, AID2223, AID489010, AID492950]. The class given is functional.

Activity calls are given as the source filed them.

Chain of Glyceraldehyde-3-phosphate dehydrogenase (P04406 whole entry): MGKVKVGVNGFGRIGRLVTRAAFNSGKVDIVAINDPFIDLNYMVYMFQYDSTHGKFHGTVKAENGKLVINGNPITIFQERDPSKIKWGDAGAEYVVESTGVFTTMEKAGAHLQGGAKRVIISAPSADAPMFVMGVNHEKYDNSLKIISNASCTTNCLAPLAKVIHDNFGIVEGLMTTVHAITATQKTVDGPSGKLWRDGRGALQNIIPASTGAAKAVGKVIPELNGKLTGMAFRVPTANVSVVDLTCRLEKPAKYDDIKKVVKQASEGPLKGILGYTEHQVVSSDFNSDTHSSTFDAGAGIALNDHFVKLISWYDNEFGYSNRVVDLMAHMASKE
Chain of Peroxisome proliferator-activated receptor gamma/Nuclear receptor coactivator 2 (P37231 whole entry): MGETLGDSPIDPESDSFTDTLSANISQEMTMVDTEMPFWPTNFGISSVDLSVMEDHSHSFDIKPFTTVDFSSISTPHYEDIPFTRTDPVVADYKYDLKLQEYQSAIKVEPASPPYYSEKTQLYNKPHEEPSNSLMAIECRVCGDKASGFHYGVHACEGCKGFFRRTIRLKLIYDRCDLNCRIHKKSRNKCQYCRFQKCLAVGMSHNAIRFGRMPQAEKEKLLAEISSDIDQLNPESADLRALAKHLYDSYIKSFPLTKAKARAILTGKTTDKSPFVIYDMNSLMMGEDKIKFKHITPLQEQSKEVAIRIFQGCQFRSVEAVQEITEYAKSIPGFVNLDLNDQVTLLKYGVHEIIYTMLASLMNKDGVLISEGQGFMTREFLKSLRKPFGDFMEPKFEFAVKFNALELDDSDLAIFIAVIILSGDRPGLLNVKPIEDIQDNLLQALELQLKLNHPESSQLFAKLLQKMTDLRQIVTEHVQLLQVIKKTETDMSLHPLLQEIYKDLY
Chain of Peroxisome proliferator-activated receptor gamma/Nuclear receptor coactivator 2 (Q15596 whole entry, further chain): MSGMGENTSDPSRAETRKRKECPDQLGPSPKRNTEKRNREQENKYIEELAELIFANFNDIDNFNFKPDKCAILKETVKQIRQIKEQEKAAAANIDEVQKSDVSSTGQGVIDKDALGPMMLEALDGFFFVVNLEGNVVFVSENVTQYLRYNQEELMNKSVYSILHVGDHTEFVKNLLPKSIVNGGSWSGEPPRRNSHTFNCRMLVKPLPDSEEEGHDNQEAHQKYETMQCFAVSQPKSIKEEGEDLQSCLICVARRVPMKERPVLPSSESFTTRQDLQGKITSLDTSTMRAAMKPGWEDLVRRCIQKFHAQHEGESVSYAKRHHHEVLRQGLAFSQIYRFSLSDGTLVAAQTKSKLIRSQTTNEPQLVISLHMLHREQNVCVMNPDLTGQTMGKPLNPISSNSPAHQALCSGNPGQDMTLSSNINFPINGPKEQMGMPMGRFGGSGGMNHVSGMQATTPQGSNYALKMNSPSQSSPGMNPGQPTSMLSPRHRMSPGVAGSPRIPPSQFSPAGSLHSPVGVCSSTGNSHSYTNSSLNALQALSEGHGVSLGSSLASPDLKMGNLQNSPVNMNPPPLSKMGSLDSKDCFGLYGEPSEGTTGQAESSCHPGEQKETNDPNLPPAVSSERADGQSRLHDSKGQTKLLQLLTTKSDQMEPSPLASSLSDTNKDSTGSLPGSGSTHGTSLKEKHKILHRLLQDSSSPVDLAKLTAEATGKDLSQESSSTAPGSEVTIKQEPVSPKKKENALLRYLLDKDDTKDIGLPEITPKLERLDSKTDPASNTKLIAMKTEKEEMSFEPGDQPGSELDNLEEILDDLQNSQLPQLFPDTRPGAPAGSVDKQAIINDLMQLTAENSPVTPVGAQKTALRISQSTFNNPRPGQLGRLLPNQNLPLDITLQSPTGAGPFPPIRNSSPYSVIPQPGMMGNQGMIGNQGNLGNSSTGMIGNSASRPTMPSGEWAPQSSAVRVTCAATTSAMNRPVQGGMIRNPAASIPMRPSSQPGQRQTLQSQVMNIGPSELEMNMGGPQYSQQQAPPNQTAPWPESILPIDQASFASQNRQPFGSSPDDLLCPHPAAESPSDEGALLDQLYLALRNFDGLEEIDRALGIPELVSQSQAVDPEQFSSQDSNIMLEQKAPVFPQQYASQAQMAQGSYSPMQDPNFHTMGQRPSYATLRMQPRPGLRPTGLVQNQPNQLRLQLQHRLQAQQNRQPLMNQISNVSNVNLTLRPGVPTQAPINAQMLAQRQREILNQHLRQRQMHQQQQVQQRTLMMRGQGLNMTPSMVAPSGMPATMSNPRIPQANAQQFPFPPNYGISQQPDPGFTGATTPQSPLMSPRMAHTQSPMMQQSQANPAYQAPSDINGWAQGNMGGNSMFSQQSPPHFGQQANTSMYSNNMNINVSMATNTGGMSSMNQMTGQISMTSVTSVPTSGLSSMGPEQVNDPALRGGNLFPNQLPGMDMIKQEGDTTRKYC
Chain of Peroxisome proliferator-activated receptor gamma/Nuclear receptor coactivator 1 (P37231 whole entry): as the sequence (P37231 whole entry) above
Chain of Peroxisome proliferator-activated receptor gamma/Nuclear receptor coactivator 1 (Q15788 whole entry, further chain): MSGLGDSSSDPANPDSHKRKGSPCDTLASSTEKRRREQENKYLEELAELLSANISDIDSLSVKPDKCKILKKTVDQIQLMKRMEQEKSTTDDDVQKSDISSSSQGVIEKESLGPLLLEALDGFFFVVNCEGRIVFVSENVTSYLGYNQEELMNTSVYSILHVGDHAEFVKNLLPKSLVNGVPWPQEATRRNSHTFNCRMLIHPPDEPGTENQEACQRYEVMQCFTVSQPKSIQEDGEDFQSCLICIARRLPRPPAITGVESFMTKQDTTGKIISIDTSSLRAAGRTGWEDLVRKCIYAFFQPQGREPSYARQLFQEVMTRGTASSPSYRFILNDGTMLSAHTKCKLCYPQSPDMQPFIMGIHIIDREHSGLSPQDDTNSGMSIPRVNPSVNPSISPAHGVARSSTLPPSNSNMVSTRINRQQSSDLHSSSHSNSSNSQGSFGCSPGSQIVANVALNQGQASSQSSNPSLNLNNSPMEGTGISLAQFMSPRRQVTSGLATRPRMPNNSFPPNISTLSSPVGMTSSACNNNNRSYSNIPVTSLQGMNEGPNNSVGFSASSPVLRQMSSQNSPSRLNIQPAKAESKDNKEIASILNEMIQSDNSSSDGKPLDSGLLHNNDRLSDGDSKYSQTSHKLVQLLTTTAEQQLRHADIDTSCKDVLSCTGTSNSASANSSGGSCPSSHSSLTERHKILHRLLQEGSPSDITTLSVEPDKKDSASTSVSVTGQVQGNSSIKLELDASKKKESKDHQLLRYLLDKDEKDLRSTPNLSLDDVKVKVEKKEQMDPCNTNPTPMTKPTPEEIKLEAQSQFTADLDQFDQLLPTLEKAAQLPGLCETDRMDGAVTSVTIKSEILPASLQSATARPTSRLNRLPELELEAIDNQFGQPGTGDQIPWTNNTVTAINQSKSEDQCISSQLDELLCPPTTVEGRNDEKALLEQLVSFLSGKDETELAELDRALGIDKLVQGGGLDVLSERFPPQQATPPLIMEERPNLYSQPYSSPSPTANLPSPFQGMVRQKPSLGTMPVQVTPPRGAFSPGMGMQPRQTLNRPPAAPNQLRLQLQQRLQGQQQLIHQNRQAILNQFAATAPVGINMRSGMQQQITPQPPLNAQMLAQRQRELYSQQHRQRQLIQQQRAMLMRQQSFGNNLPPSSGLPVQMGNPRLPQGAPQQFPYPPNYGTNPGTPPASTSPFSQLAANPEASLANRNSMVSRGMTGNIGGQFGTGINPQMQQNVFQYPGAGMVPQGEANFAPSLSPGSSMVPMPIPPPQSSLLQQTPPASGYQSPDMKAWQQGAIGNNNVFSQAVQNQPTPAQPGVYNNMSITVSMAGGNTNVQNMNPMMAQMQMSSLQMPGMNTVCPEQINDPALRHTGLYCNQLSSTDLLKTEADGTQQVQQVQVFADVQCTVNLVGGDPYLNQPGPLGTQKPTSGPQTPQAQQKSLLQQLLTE

One may read the EC50 as the concentration giving half of the maximal effect. In the case of `CCOC(=O)c1[nH]c(CSc2nnc(-c3ccc(OC)cc3)o2)c(C(=O)OCC)c1C`, the figures for the 50% effective concentration (EC50) in assay [1] and in assay [2] were 20.8 µM (active) and 21.6 µM (active), respectively.
In general, AC50 refers to the concentration at which the activity in the assay is half-maximal. For the compound `Cc1cc(N2CCN(c3cccc(C)c3C)CC2)nc(-c2ccccc2)n1`, the AC50 in [3] was 1.66 µM (active).
The IC50 is the point on the concentration scale where inhibition reaches its midpoint. As to `CC1(C(=O)NS(=O)(=O)c2ccc(C#N)cc2)CCN1C(=O)c1ccc(C2CCCCC2)cc1` (stereo unspecified), the half-maximal inhibitory concentration (IC50) at Fatty acid synthase is 5.24 µM (active).
As to `CNC(=O)c1n[nH]c2c1COc1ccccc1-2`, the 50% inhibitory concentration (IC50) in [4] is > 100 µM (not active); in assay [5], > 100 µM (inactive).
As for `COc1ccc(-c2noc(Cc3ccccc3OC)n2)cc1`, the 50% effective concentration (EC50) in assay [6], in [7] and in [8] was > 79.4 µM (not active) throughout.
For the compound `O=C(c1ccc(-c2ccccc2)c(F)c1)C1CCCN(C(=O)c2cncs2)C1` (stereo unspecified), in [9], the EC50 is given as > 195 µM (not active). In addition, in [10], the CC50 is 32.9 µM (active). In assay [3], the AC50 is 7.61 µM (active).
Consider `CCOCCCNC1=C(Cl)C(=O)c2ccccc2C1=O`, for which the AC50 was 10.6 µM (active) in assay [3] and 12.3 µM (active) in [11].
Take `CC(C)(C)c1ccc(-c2nnc3sc(-c4ccncc4)nn23)cc1`: the EC50 in assay [6], in assay [7] and in [8] was > 79.4 µM (not active) each time.
Take `COC(=O)Nc1ccc2c(c1)N(C(=O)CCN(C)C)c1ccccc1CC2`: in [11], the AC50 was > 20 µM (inactive).
Turning to `c1cncc(-c2cc[nH]n2)c1`, the half-inhibitory concentration (IC50) is > 100 µM (not active) in assay [4] and > 100 µM (inactive) in assay [5].
`Cc1ccccc1N=C(S)NC(NC(=O)COc1ccccc1)C(Cl)(Cl)Cl` (stereo unspecified): the 50% effective concentration (EC50) in assay [1] was 27.2 µM (active); in [2], 31 µM (active).
Turning to `COc1ccc(-c2nnc(Sc3nc4ccccc4o3)c3ccccc23)cc1`, the EC50 in assay [1] was 18.3 µM (active); in assay [2], 16.2 µM (active); on Protein RecA, 0.703 µM (active). In assay [12], the concentration at half-maximal activity (AC50) is 3.8 µM (active).
For `Cc1nn(-c2ccccc2)c2sc(C(=O)NNC(=O)COc3cccc4ccccc34)cc12`, the EC50 in assay [1] is 19.2 µM (active); in [2], 19.3 µM (active).
Regarding `O=S(=O)(c1ccc2ccccc2c1)n1ccc2ccccc21`, the IC50 in [4] was > 100 µM (not active); in assay [5] it was > 100 µM (inactive).
`O=C(Cn1ccnc1)c1ccc(O)c(O)c1`: in [5], the IC50 was > 100 µM (inactive).
For the compound `NCc1cc(-c2cccnc2)no1`, the concentration for half-maximal inhibition (IC50) was > 100 µM (not active) in assay [4] and > 100 µM (inactive) in assay [5].
For the compound `O=C(c1cccc(C(F)(F)F)c1)N1CCN(c2cc(O)nnc2-c2ccccc2)CC1`, the EC50 in [6], in assay [7] and in assay [8] was > 79.4 µM (not active) each time.
